# Species on record: Rattus norvegicus
# Assay: Open TG-GATES - Regimen: Single
# Format: toxicity, organism-based, Sprague-Dawley
# Design: regimen Single, gender Male, age 6 weeks
# Conditions: in vivo, po, 0 mg/kg, route gavage, dose level Control; for Bas / Eos / Fbg / Hb / Ht / Lym / MCHC / MCV / Mono / PT / Plat / RBC / WBC / APTT: tissue Blood; for KIDNEY_L / KIDNEY_R / KIDNEY_TOTAL: tissue Kidney; for LIVER: tissue Liver; for ALP / ALT / AST / CRE / Ca / Cl / DBIL / GLC / K / LDH / Na / PL / RALB / TBIL / TC / TG / TP / gamma-GTP: tissue Plasma
compound,measurement,setting,value
COc1ccc([C@@H]2Sc3ccccc3N(CCN(C)C)C(=O)[C@@H]2OC(C)=O)cc1 [DILTIAZEM],TERMINAL_BW,3 h,181.4 g
same,Bas,3 h,0%
same,Eos,3 h,0.8%
same,Fbg,3 h,269 mg/dL
same,Hb,3 h,13 g/dL
same,Ht,3 h,40.2%
same,Lym,3 h,76.8%
same,MCHC,3 h,32.3%
same,MCV,3 h,67 fL
same,Mono,3 h,3.4%
same,PT,3 h,14.3 s
same,Plat,3 h,127.1 x10_4/uL
same,RBC,3 h,600.6 x10_4/ul
same,WBC,3 h,84.6 x10_2/uL
same,KIDNEY_L,3 h,0.9 g
same,KIDNEY_R,3 h,0.9 g
same,KIDNEY_TOTAL,3 h,1.8 g
same,LIVER,3 h,8.3 g
same,ALP,3 h,1273 IU/L
same,ALT,3 h,43.2 IU/L
same,AST,3 h,75.4 IU/L
same,CRE,3 h,0.2 mg/dL
same,Ca,3 h,10.9 mg/dL
same,Cl,3 h,106.8 meq/L
same,DBIL,3 h,0.01 mg/dL
same,GLC,3 h,178.4 mg/dL
same,K,3 h,4.4 meq/L
same,LDH,3 h,79.2 IU/L
same,Na,3 h,142 meq/L
same,PL,3 h,141 mg/dL
same,RALB,3 h,2.5 g/dL
same,TBIL,3 h,0.04 mg/dL
same,TC,3 h,83.2 mg/dL
same,TG,3 h,38.4 mg/dL
same,TP,3 h,5.1 g/dL
same,gamma-GTP,3 h,1 IU/L
same,TERMINAL_BW,6 h,181.1 g
same,APTT,6 h,18.2 s
same,Bas,6 h,0%
same,Eos,6 h,0.4%
same,Fbg,6 h,280 mg/dL
same,Hb,6 h,13.3 g/dL
same,Ht,6 h,40.7%
same,Lym,6 h,78%
same,MCHC,6 h,32.6%
same,MCV,6 h,66.8 fL
same,Mono,6 h,2.6%
same,PT,6 h,14.5 s
same,Plat,6 h,116.6 x10_4/uL
same,RBC,6 h,609.6 x10_4/ul
same,WBC,6 h,77 x10_2/uL
same,KIDNEY_L,6 h,0.8 g
same,KIDNEY_R,6 h,0.8 g
same,KIDNEY_TOTAL,6 h,1.7 g
same,LIVER,6 h,7.8 g
same,ALP,6 h,1331.4 IU/L
same,ALT,6 h,40.2 IU/L
same,AST,6 h,69.4 IU/L
same,CRE,6 h,0.2 mg/dL
same,Ca,6 h,10.8 mg/dL
same,Cl,6 h,106.6 meq/L
same,DBIL,6 h,0.006 mg/dL
same,GLC,6 h,171.6 mg/dL
same,K,6 h,4.1 meq/L
same,LDH,6 h,61.4 IU/L
same,Na,6 h,143 meq/L
same,PL,6 h,129.8 mg/dL
same,RALB,6 h,2.5 g/dL
same,TBIL,6 h,0.038 mg/dL
same,TC,6 h,71.8 mg/dL
same,TG,6 h,43.2 mg/dL
same,TP,6 h,5.1 g/dL
same,gamma-GTP,6 h,1 IU/L
same,TERMINAL_BW,9 h,180.5 g
same,APTT,9 h,17 s
same,Bas,9 h,0%
same,Eos,9 h,0.6%
same,Fbg,9 h,313 mg/dL
same,Hb,9 h,13.3 g/dL
same,Ht,9 h,41.1%
same,Lym,9 h,75.4%
same,MCHC,9 h,32.3%
same,MCV,9 h,66.5 fL
same,Mono,9 h,2.4%
same,PT,9 h,14.5 s
same,Plat,9 h,126.8 x10_4/uL
same,RBC,9 h,619.2 x10_4/ul
same,WBC,9 h,78.7 x10_2/uL
same,KIDNEY_L,9 h,0.8 g
same,KIDNEY_R,9 h,0.8 g
same,KIDNEY_TOTAL,9 h,1.7 g
same,LIVER,9 h,6.9 g
same,ALP,9 h,1820.2 IU/L
same,ALT,9 h,43 IU/L
same,AST,9 h,75.4 IU/L
same,CRE,9 h,0.2 mg/dL
same,Ca,9 h,10.6 mg/dL
same,Cl,9 h,107 meq/L
same,DBIL,9 h,0.01 mg/dL
same,GLC,9 h,178 mg/dL
same,K,9 h,4.1 meq/L
same,LDH,9 h,71.8 IU/L
same,Na,9 h,142.2 meq/L
same,PL,9 h,119.4 mg/dL
same,RALB,9 h,2.5 g/dL
same,TBIL,9 h,0.038 mg/dL
same,TC,9 h,67.2 mg/dL
same,TG,9 h,28.4 mg/dL
same,TP,9 h,5.2 g/dL
same,gamma-GTP,9 h,1.8 IU/L
same,TERMINAL_BW,24 h,198.1 g
same,Bas,24 h,0%
same,Eos,24 h,1%
same,Fbg,24 h,259.8 mg/dL
same,Hb,24 h,13 g/dL
same,Ht,24 h,39.6%
same,Lym,24 h,74.6%
same,MCHC,24 h,32.9%
same,MCV,24 h,64.9 fL
same,Mono,24 h,3.4%
same,PT,24 h,14.8 s
same,Plat,24 h,119.2 x10_4/uL
same,RBC,24 h,610.2 x10_4/ul
same,WBC,24 h,90.7 x10_2/uL
same,KIDNEY_L,24 h,0.9 g
same,KIDNEY_R,24 h,0.9 g
same,KIDNEY_TOTAL,24 h,1.8 g
same,LIVER,24 h,8.9 g
same,ALT,24 h,48 IU/L
same,AST,24 h,77 IU/L
same,CRE,24 h,0.2 mg/dL
same,Ca,24 h,11.1 mg/dL
same,Cl,24 h,107 meq/L
same,DBIL,24 h,0.014 mg/dL
same,GLC,24 h,187.4 mg/dL
same,K,24 h,4.2 meq/L
same,LDH,24 h,88.4 IU/L
same,Na,24 h,143.8 meq/L
same,PL,24 h,148.6 mg/dL
same,RALB,24 h,2.6 g/dL
same,TBIL,24 h,0.03 mg/dL
same,TC,24 h,76.6 mg/dL
